Results reported in patent US20070110734A9, “Methods and compositions using cellular asialodeterminants and glycoconjugates for targeting cells to tissues and organs” (Department of Veterans Affairs, Rehabilitation R&D Service, priority 2002, published 2007).
“Also recorded” adds a separate entry of the source.

Assays:
[1] = test system: K562 (NK/LAK-sensitive target); assay: Cytotoxic capacity of IL-2 activated NK effectors in 51Cr-release assay on K562; format: cell-based, human; conditions: 200 μg/ml; 23° C
Description: (§1) This experiment is the same as above, except that the adherence to monolayers was performed at 23° C. and not 4° C., for 2 hours. Two monolayers were used: HEPG2, an ASGPR+ cell line, and CAKI-2 (human renal cell carcinoma), an ASGPR− cell line. The effector cell populations that were used were: an untreated 3-day old LAK preparation (LAK) and the same population treated with Vibrio cholera neuraminidase (LAK/NS) (30 mU/1×10^7 cells/200 μl). The neuraminidase-treated population was the asialopositive lymphocyte control. All cell populations regardless of treatment were greater than 90% viable at the time of assay. Each type of effector population was incubated with media alone, 200 μg/ml ASF or F, as controls. All effectors were assayed on RAJI (LAK-sensitive target; NK-insensitive target) or K562 (NK/LAK-sensitive target); the E:T ratios and the graphic presentation are the same above.
(§2) Five-day LAK preparations (20 U/ml; 1 Dupont unit=44.5 BRMP units) grown in AIM-V (Gibco) were treated (according to the protocols in B. 1.2.3 & 1.2.4) with 3 OmU Vibric Cholera neuramindase, 0.48 mU 2,3-or 10 mu 2,6-silalyltransferase per 107 cells. Some of the effectors were incubated in media, 10% PBS in RPMJ 1640 at 23° C. for 2 hours. 2×107 effectors from the untreated LALK, neuramithdase-treated LAK, LAK treated with 2,3 or 2,6 were suspended in 15 ml media and placed onto either HEPG2 (ASGPR+) or CAKI-2 (ASGPR−) monolayers at 23° C. for 2 hours. The flasks were rocked every 15 minutes. The nonadherent cells from these monolayers were decanted and assayed against K562 and RAJI, in addition to the unadhered controls. The E:T ratios used were 40, 20, 10, and 5 to 1.

[2] = test system: HEPG2 (ASGPR+); assay: Adherence of NK/LAK activity to HEPG2 monolayers at 23° C; format: cell-based, human; conditions: 23° C, 200 μg/ml
Description: as §1, §2

[3] = test system: Caki-2 Targets; assay: 51Cr-release assay of LAK effectors against CAKI-2 with agent added; format: cell-based, human; conditions: for % 51Chromium Release from Caki-2 Targets: agent 250 μg per well, 5-day LAK, 4-hour incubation
Description: A working hypothesis is that LAK/NK cells bind to HEPG2 via at least two receptors or recognition structures: 1) the ASGPR, which binds an asialodeterminant on the LAK/NK population and 2) the “LAK” or “NK” recognition structure for a target epitope. The first should be inhibitable by ASF; the second should not be. Binding to CAKI-2 (ASGPR−) should not be inhibited by ASF and is due to a LAK or NK recognition structure binding to the target epitope. This can be further supported by data derived from experiments (see below) in which 250 μg/well of ASF or F were added to the ^51Cr-release assay of LAK effectors against the labeled target CAKI-2.
(% SPECIFIC RELEASE was determined from quadruplicates whose raw counts per minute differed by less than 10 percent; the assay was a standard 4-hour incubation.)

[4] = test system: CAKI-2 (ASGPR−); assay: Adherence of NK/LAK activity to CAKI-2 monolayers at 23° C; format: cell-based, human; conditions: 23° C; 200 μg/ml
Description: as §1, §2

[5] = test system: HEPG2 (ASGPR+); assay: Adherence of NK/LAK activity to HEPG2 monolayers at 4° C; format: cell-based, human; conditions: monolayer pretreated with 200 μg/ml protein, 2 hours at 4° C, assayed on Raji
Description: (§3) Control cells (no IL-2 treatment) or LAK cells (IL-2-treated human peripheral blood lymphocytes cultured 10U IL-2/ml for 3 days) were adhered to a monolayer of HEP G2 cells for 2 hours at 4° C. The monolayer was pretreated either with asialofetuin (ASF, 200 μg/ml) in media or with fetuin (F, control, 200 μg/ml)) in media. After the Control or LAK cells had been incubated on the monolayer, these cells were then decanted, washed, and tested for cytotoxic capacity in a ^51Cr-release assay against the NK-resistant target, Raji.

[6] = test system: RAJI (LAK-sensitive target; NK-insensitive target); assay: Cytotoxic capacity of LAK effectors in 51Cr-release assay on RAJI; format: cell-based, human
Description: as §3, §1, §2

[7] = test system: Caki-2 Targets; assay: 51Cr-release assay of LAK effectors against CAKI-2 with agent added; format: cell-based, human; conditions: concentration of 1 mg/ml
[8] = test system: human CD34+ (hCD34+) peripheral blood stem cells; assay: In vivo trafficking of 111In-labeled human CD34+ stem cells (HSC) after glycoprotein infusion, gamma camera imaging; parameters: species or system NOD-SCID mice; conditions: for % Infused Cells in Liver/Spleen: 5.75×10^6 HSC preceded by 5.5 mg orosomucoid i.v.; for organ localization of infused hematopoietic (CD34+) stem cells, in words: cells preceded by infusion of the protein, jugular vein, immunodeficient mice
Description: Intravenous cannulas were placed into the external jugular vein of NOD-SCID mice under anesthesia (Institutional Animal Care and Use Committee protocol #AM87046-07) to enable the efficient delivery of ^111In-labeled stem cells i.v. Tylenol elixir was administered by mouth after recovery from anesthesia. Briefly radiolabeled CD34+ cells were taken up in 100-250 ul of 5% human plasma albumin in saline and injected into the cannula and then flushed with 50 ul of the albumin-saline. The mice were imaged by nuclear medicine.
Mice: NOD-SCID, female mice (Nonobese diabetic/LtSz-scid/scid) were obtained from the Jackson Laboratory, Bar Harbor, Me. at 1-2 months of age. These animals were maintained in microisolator cages in a special isolator room. The air was HEPA filtered, and the animals were changed in a laminar flow hood within the facility. All food, bedding, and water was sterilized. […] See, e.g. Hogan, et al., Biology of Blood & Marrow Transplantation 3:236-246 (1997); Noort, et al., Bone Marrow Transplantation 22 Suppl 1:S58-60 (1998).
(§4) ^111Indium Oxine Labeling Procedure: ^111In-oxine labeling of adult human CD34+ or mesenchymal stem cells (hMSCs) was performed using a modification of the Amersham Healthcare Procedure for labeling autologous leukocytes.
(§5) Imaging procedures: Nuclear Medicine. NOD-SCID mice were anesthetized using rodent anesthesia cocktail. Once anesthetized, the mice were placed on a foam hemi-cylindrical mouse positioning device (MPD) and covered with a tube sock. The MPD allows better visual separation of the lungs and liver as compared to placing the mouse on a flat surface. The foam on which the mouse was placed, and the tube sock covering maintained a comfortable temperature permitting longer imaging without additional anesthesia. The MPD was placed on a narrow table between the dual heads of a Siemens E.Cam Gamma Camera and imaged statically or dynamically in 2-D or SPECT. ^57Co-Spot Marker is used to mark anatomic positions (nose, tail, cannula, etc.). The data was analyzed using a Siemens ICON system for regions of interest or percent of injected dose (e.g. liver, spleen, heart).
(§6) Gamma camera imaging using a Siemens E. Cam dual head gamma camera monitored the in vivo trafficking patterns of all human stem cells described in the following examples. Mice were placed on a Mouse Positioning Device (MPD) and placed between the detectors on the imaging platform.
5.75×10^6 111In-labeled human CD34+ (hCD34+) peripheral blood stem cells were administered intravenously (i.v.) via an external jugular vein cannula to 2 month old, NOD-SCID, female mice (Non-obese diabetic/LtSz-scid/scid) obtained from the Jackson Laboratory, Bar Harbor, Me. The radiolabeled CD34+ stem cells were administered after pretreatment of the mouse with 3.3 mg of asialoorosomucoid (ASO) i.v. The in vivo trafficking patterns were followed by gamma camera imaging using a Siemens E.Cam dual head gamma camera from immediately after injection up to 36 hr postinfusion. Human CD34+ were isolated from apheresis stem cell collection products derived from deceased cancer patients. They were purified to 95-99% purity using antibody conjugated to CD34 conjugated to magnetics beads (MACS) separation columns; Miltenyi Biotec, Auburn, Calif. and cryopreserved.
5.75×10^6 111In-labeled human CD34+ (hCD34+) peripheral blood stem cells were administered intravenously (i.v.) via an external jugular vein cannula to 2 month old, NOD-SCID, female mice (Non-obese diabetic/LtSz-scid/scid) obtained from the Jackson Laboratory, Bar Harbor, Me. The radiolabeled CD34+ stem cells were administered after pretreatment of the mouse with 5.5 mg of orosomucoid (O) i.v.
The preparation and procedures set forth in Example I were repeated. […]

[9] = test system: human CD34+ (hCD34+) peripheral blood stem cells; assay: as above; parameters: species or system NOD-SCID mice; conditions: 0.5×10^6 HSC preceded by 11 mg orosomucoid i.v.
[10] = test system: human mesenchymal stem cells (MSC); assay: In vivo trafficking of 111In-labeled human mesenchymal stem cells (MSC) after glycoprotein infusion, gamma camera imaging; parameters: species or system NOD-SCID mice; conditions: for % Infused Cells in Heart: 0.56×10^6 MSC preceded by 11 mg orosomucoid i.v.
Description: Human mesenchymal stem cells (hMSCs; PT-2501) obtained through a FDA monitored paid bone marrow donor program were purchased from Poietics Technologies, BioWhittaker (Walkerville, Md.). The cells were thawed according to manufacturer recommendations, resuspended, and radiolabeled in Mesenchymal Stem Cell Basal Medium (MSCBM).
as §4, §5, §6
MSC were obtained from BioWhittaker, (Poietics Division, cryopreserved PT-2501 >750,000 cells per ampoule) and labeled with ^111In as in previous examples, except that the MSC were labeled, washed, and injected in Basal Stem Cell Medium (Poietics) containing 5% human serum albumin (HSA). 0.56×10^6 111In labeled, human mesenchymal stem cells (MSC) were administered via an implanted Da Vinci Microport Vascular System cannula in the external jugular vein of a two-month old, female NOD-SCID mouse in 0.21 ml of basal stem cell medium containing 5% human serum albumin (HSA). Immediately prior to administration of MSC, 11.0 mg of orosomucoid was administered i.v. in 0.2 ml.
0.56×10^6 “In-labeled, MSC were administered i.v. in 0.21 ml of basal stem cell medium containing 5% human serum albumin (HSA). Prior to administration of MSC, 0.1 ml containing 4.3 mg of ASO, followed by 0.1 ml containing 5.5 mg orosomucoid were administered i.v. The ASO, orosomucoid and MSC were administered via an implanted Da Vinci Microport Vascular system cannula in the external jugular vein of a two-month old, female NOD-SCID mouse.

asialofetuin [ASF]
ability of effectors (LAK or LAK/NS) to kill K562 after preincubation with the protein [1]: does not affect | inhibition of adherence to HEPG2 of LAK activity (assayed on RAJI) [2]: could not be inhibited; also recorded: cannot be inhibited | inhibition of adherence of LAK activity of the neuraminidase-treated population to HEPG2 ([2]; assayed on RAJI): only marginally be inhibited | inhibition of adherence to HEPG2 of IL-2 activated NK (assayed on K562) ([2]; with or without neuraminidase treatment): partially inhibited | % 51Chromium Release from Caki-2 Targets ([3]; E:T 5:1): 13% | % 51Chromium Release from Caki-2 Targets ([3]; E:T 10:1): 24% | % 51Chromium Release from Caki-2 Targets ([3]; E:T 20:1): 41% | % 51Chromium Release from Caki-2 Targets ([3]; E:T 40:1): 52% | blocking of LAK killing of the tumor target CAKI-2, in words ([3]; preincubation of targets and addition to the assay at 250 μg per well): does not block | inhibition of adherence to CAKI-2 of IL-2 activated NK or LAK activity [4]: could not be inhibited; also recorded: cannot be blocked | adherence of LAK activity to HEPG2 monolayer, in words [5]: virtually all LAK activity can be inhibited from adhering | adherence of LAK activity to HEPG2 monolayer, in words ([5]; listed as asialofetuin): not removed; also recorded: does not adhere | activity of LAK or Control preparations incubated with the protein alone versus untreated LAK ([6]; 200 μg/ml for 2 h at 40C, no monolayer): identical activity | ability of effectors (LAK or LAK/NS) to kill RAJI after preincubation with the protein ([6]; 200 μg/ml, 23° C): does not affect | inhibition of the ability of LAK to kill CAKI-2 target, in words [7]: did not inhibit

alpha-(1)-acid glycoprotein [Orosomucoid]
111In-labeled cells in the region of the heart, in words ([8]; 5.75×10^6 HSC after 5.5 mg orosomucoid i.v., up to 36 hours): No ^111In-labeled cells were found in the region of the heart | % Infused Cells in Liver/Spleen ([8]; 1.5 hr): 74 ± 4% at 1.5 hr | % Infused Cells in Liver/Spleen ([8]; 1.5 hr, listed as orosomucoid): 74±4% | % Infused Cells in Liver/Spleen ([8]; 24 hr): 63 ± 1% at 24 hr | % Infused Cells in Liver/Spleen ([8]; 24 hr, listed as O): 63.6% | % Infused Cells in Liver/Spleen ([8]; 24 hr, listed as orosomucoid): 63±1% | % Infused Cells in Liver/Spleen ([8]; immediately after infusion (0 hr)): 74 ± 3% at 0 hr | % Infused Cells in Liver/Spleen ([8]; immediately after infusion (0 hr), listed as O): 76.3% | % Infused Cells in Liver/Spleen ([8]; immediately after infusion (0 hr), listed as orosomucoid): 74±3% | organ localization of infused hematopoietic (CD34+) stem cells, in words ([8]; listed as O): migrated immediately to the liver/spleen area | organ localization of infused hematopoietic (CD34+) stem cells, in words ([8]; listed as orosomucoid (O)): localize in the liver | % of infused cells in the liver region ([9]; 1 hr): 40±3% | % of infused cells in the liver and spleen ([9]; immediately after infusion): 43±2% | % Infused Cells in Heart ([10]; 0 hr): 68 ± 7% at 0 hr | % Infused Cells in Heart ([10]; 0 hr, listed as orosomucoid): 68±7% | % Infused Cells in Heart ([10]; 1 hr): 61 ± 3% at 1 hr | % Infused Cells in Heart ([10]; 1 hr, listed as orosomucoid): 61±3% | organ localization of infused mesenchymal stem cells, in words ([10]; cells preceded by infusion of the protein, jugular vein, immunodeficient mice): predominantly localize in the heart
